{"source": "patent US5147855A", "about": "“Conjugates of VIP and active fragments thereof with hydrophobic moieties and topical compositions for male impotence” (Yeda Research and Development Co. Ltd., priority 1988, dated 1992)", "key": {"[1]": {"test_system": "sexual behaviour of male rats", "experiment": "Sexual behaviour of male rats after topical application of ointment (Table IV)", "format": "in vivo", "settings": "ointment applied onto the rat's penis", "source_text": "(§1) The animal model -- All tested rats (Wistar derived from the departmental colony, Hormone Research Department, at the Weizmann Institute of Science), are sexually experienced male rats around 3 months of age (body weight ~250 g). At this age, the rats are castrated by removal of the testes and injected daily with testosterone for at least 14 consecutive days.\n(§2) All rats (males and females) that take part in the experiment are kept in a 12-hour light 12-hour dark cycle. Prior to testing, each male is put in a separate cage for at least 1 hour. A sexually receptive female is introduced to each male. Females were tested for their receptivity by vaginal smearings. The latencies of mounts and intromissions are recorded. […] Using castrated animals we achieved decreased sexual activity which is expressed by longer intervals between intromissions and less intromissions during the 15 min observation periods.\nPreparation of Ointment -- Lanolin (1 g), water (3 g) DMSO (7 drops) and 10 mg of stearyl-VIP were manually homogenized in a mortar. An amount of paste, containing 30-50 μg peptide was applied onto the rat's penis and sexual behaviour, following the methodology previously described, was monitored.\n(B) Using the same protocol as in (A) an ointment of VIP-oleyl was prepared and tested."}, "[2]": {"test_system": "sexual behaviour of male rats", "experiment": "Sexual behaviour of castrated male rats, topical application of several materials (Table III)", "format": "in vivo, rat", "set-up": "key to Ejaculations (E): E = Ejaculations", "settings": "for Ejaculations (E) / No. Ob. / Int. Latency: individual rats; for No. Ob. / Int. Latency: castrated 14 days earlier, testosterone 4 μg/100 g BW daily; for Int. Latency: in s", "source_text": "as §1\nAll rats (males and females) that take part in the experiment are kept in a 12-hour light 12-hour dark cycle. Prior to testing, each male is put in a separate cage for at least 1 hour. A sexually receptive female is introduced to each male. Females were tested for their receptivity by vaginal smearings. The latencies of mounts and intromissions are recorded.\n6 rats, 120 days old, sexually experienced, were tested. The rats were castrated 14 days earlier and were injected with 4 μg/100 g BW of testosterone daily. […] All 6 materials were tested by topical application."}, "[3]": {"test_system": "sexual behaviour of male rats", "experiment": "Sexual behaviour of castrated, testosterone-treated male rats after intravenous injection (Table I)", "format": "in vivo, rat", "set-up": "key to Ejaculations (E): E = Ejaculations", "source_text": "as §1, §2\nInitially, we tested a few VIP analogs by injection (intravenously 5-10 μg/animal). As a control we injected saline at identical volumes (5-10 μl).\nRats were castrated and injected daily for 15 consecutive days with testosterone at 4 μg/100 g body weight (BW). Tests were performed with stearyl-VIP or VIP at 10 μg/animal."}, "[4]": {"test_system": "sexual behaviour of male rats", "experiment": "Sexual behaviour of castrated male rats after topical application in DMSO (Table II)", "format": "in vivo, rat", "set-up": "key to Ejaculations (E): E = Ejaculations", "settings": "for Effect on sexual activity (words): compared with DMSO control", "source_text": "as §1, §2\nAs we have obtained positive results with stearyl-VIP by injection we have now developed a topical application method. This was achieved by mixing 20 μl of 1 μg/ml VIP-stearyl with 10 μl dimethyl sulfoxide (DMSO) and direct topical application on the sex organ.\nRats were castrated and injected daily for 16 consecutive days with testosterone at 2 μg/100 g BW. Testing was performed by topical application of stearyl-VIP-20 μg/20 μl mixed with 10 μl DMSO and compared to topical application of 30 μl DMSO."}, "penile erection": {"test_system": "penile erection", "settings": "injection; cited from earlier work"}, "[5]": {"settings": "individual castrated rats, testosterone 4 μg/100 g BW daily 15 days, injection 10 μg/animal, listed as VIP stearyl"}}, "note": "“And” between values parts separate entries of the source, which are not always exact repeats. Equal entries are not always repeated. No end group written: not given here. NH = not defined here; oleyl = oleyl moiety"}
{"compound": "VIP-oleyl: VIP coupled to an oleyl moiety, tested as an ointment (HSDAVFTDNYTRLRKQMAVKKYLNSILN-{NH-oleyl}; ends and bridges not checked; UniProt P01282 125-152, looked up)", "values": [{"measurement": "Decrease (shortening) in intromission latency", "setting": "[1]", "result": "~ 10%"}, {"measurement": "Increase in ejaculations", "setting": "[1]", "result": "increased, though much less than stearyl-VIP"}]}
{"compound": "CCCCCCCCCCCCCCCCCC(=O)O", "note": "[Stearic acid, reference compound]", "values": [{"measurement": "Ejaculations (E)", "setting": "[2]", "result": "E"}, {"measurement": "No. Ob.", "setting": "[2]", "result": "19 and 21"}, {"measurement": "Int. Latency", "setting": "[2]", "result": "26 ± 1 and 18 ± 3 and 36 ± 2"}]}
{"compound": "Stearyl-VIP", "values": [{"measurement": "Intromission latency", "setting": "[3]; [5]", "result": "17 ± 3 s and 28 ± 7 s and 50 ± 17 s and 33 ± 6 s and 37 ± 6 s and 56 ± 8 s and 45 ± 7 s"}, {"measurement": "Obs. = Number of intromissons per 15 minute test period", "setting": "[3]; [5]", "result": "7 and 4 and 12 and 20 and 14 and 6"}, {"measurement": "Ejaculations (E)", "setting": "[3]; individual castrated rats, injection 10 μg/animal", "result": "E"}, {"measurement": "Effect on sexual activity (words)", "setting": "[3]; injection", "result": "potentiates sexual activity in a comparable manner to VIP"}, {"measurement": "Obs. (number of intromissions)", "setting": "[4]; individual castrated rats, testosterone 2 μg/100 g BW daily 16 days, topical 20 μg/20 μl mixed with 10 μl DMSO", "result": "21 and 14 and 10 and 3 and 11 and 25"}, {"measurement": "Intromission latency", "setting": "[4]; individual castrated rats, testosterone 2 μg/100 g BW daily 16 days, topical 20 μg/20 μl mixed with 10 μl DMSO, in s", "result": "23 ± 4 and 29 ± 4 and 32 ± 8 and 16 ± 3 and 38 ± 10 and 18 ± 7 and 24 ± 4"}, {"measurement": "Ejaculations (E)", "setting": "[4]; individual castrated rats, topical in DMSO", "result": "E"}, {"measurement": "Effect on sexual activity (words)", "setting": "[4]; topical in DMSO", "result": "remarkable sexual arousal"}, {"measurement": "Effect on sexual activity (words)", "setting": "[4]; topical in DMSO, listed as StearylVIP", "result": "rats B2 and A3 were sexually active only after"}, {"measurement": "Activity upon topical application", "setting": "[2]", "result": "the most active analog"}, {"measurement": "Change in latency", "setting": "[2]; 6 rats", "result": "shortening of latency"}, {"measurement": "Change in number of ejaculations", "setting": "[2]; 6 rats", "result": "clear increase in the number of ejaculations"}, {"measurement": "Change in number of intromissions", "setting": "[2]; 6 rats", "result": "increase in number of intromissions"}, {"measurement": "Ejaculations (E)", "setting": "[2]", "result": "E"}, {"measurement": "No. Ob.", "setting": "[2]", "result": "6 and 28 and 20 and 49 and 31"}, {"measurement": "Int. Latency", "setting": "[2]", "result": "66 ± 15 and 18 ± 3 and 18 ± 2 and 12 ± 3 and 26 ± 1"}, {"measurement": "Decrease (shortening) in intromission latency", "setting": "[1]", "result": "about 25%"}, {"measurement": "Increase in ejaculations", "setting": "[1]", "result": "two-fold"}]}
{"compound": "CC(COc1ccccc1)N(CCCl)Cc1ccccc1", "note": "(stereo not drawn) [phenoxybenzamine]", "values": [{"measurement": "Erection", "setting": "penile erection", "result": "Erection was also obtained"}]}
